Assay results reported in PubChem BioAssay AID1963423 (Molecular Pharmacology Branch, DTP, NCI, 2024).

Test system: 439559-082-T-J2-PDC complex spheroid growth
Test: Anticancer human tumor 439559-082-T-J2-PDC patient-derived colon adenocarcinoma cell line growth inhibition [Asc]
Details: for IC50: curve of first compound; for viability, T/C: stronger effect = lower value
Method in brief: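 Stromal components (HUVEC and hMSC) are co-assembled with the cancer cells into multicellular spheroids. Drugs are then added singly or paired, at concentrations falling by half-log increments from a clinically achievable maximum, capped at 10 microM without known Cmax.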

[1] = second compound 0.00316 µM, first compound 0.0316 µM
[2] = second compound 0.00316 µM, first compound 0.1 µM
[3] = second compound 0.00316 µM, first compound 0.316 µM
[4] = second compound 0.00316 µM, first compound 1 µM
[5] = second compound 0.00316 µM, first compound 3.16 µM
[6] = second compound 0.00316 µM, first compound 10 µM
[7] = second compound 0.01 µM, first compound 0.0316 µM
[8] = second compound 0.01 µM, first compound 0.1 µM
[9] = second compound 0.01 µM, first compound 0.316 µM
[10] = second compound 0.01 µM, first compound 1 µM
[11] = second compound 0.01 µM, first compound 3.16 µM
[12] = second compound 0.01 µM, first compound 10 µM
[13] = second compound 0.0316 µM, first compound 0.0316 µM
[14] = second compound 0.0316 µM, first compound 0.1 µM
[15] = second compound 0.0316 µM, first compound 0.316 µM
[16] = second compound 0.0316 µM, first compound 1 µM
[17] = second compound 0.0316 µM, first compound 3.16 µM
[18] = second compound 0.0316 µM, first compound 10 µM
[19] = second compound 0.1 µM, first compound 0.0316 µM
[20] = second compound 0.1 µM, first compound 0.1 µM
[21] = second compound 0.1 µM, first compound 0.316 µM
[22] = second compound 0.1 µM, first compound 1 µM
[23] = second compound 0.1 µM, first compound 3.16 µM
[24] = second compound 0.1 µM, first compound 10 µM
[25] = second compound 0.316 µM, first compound 0.0316 µM
[26] = second compound 0.316 µM, first compound 0.1 µM
[27] = second compound 0.316 µM, first compound 0.316 µM
[28] = second compound 0.316 µM, first compound 1 µM
[29] = second compound 0.316 µM, first compound 3.16 µM
[30] = second compound 0.316 µM, first compound 10 µM
[31] = second compound 1 µM, first compound 0.0316 µM
[32] = second compound 1 µM, first compound 0.1 µM
[33] = second compound 1 µM, first compound 0.316 µM
[34] = second compound 1 µM, first compound 1 µM
[35] = second compound 1 µM, first compound 3.16 µM
[36] = second compound 1 µM, first compound 10 µM
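Also: spheroids exposed to agents for 7 days starting day 3 after seeding.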
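For viability, T/C in this document: percent of DMSO vehicle control viability with 100% = vehicle.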

Compound: C#Cc1c(F)ccc2cc(O)cc(-c3ncc4c(N5CC6CCC(C5)N6)nc(OCC56CCCN5CC(F)C6)nc4c3F)c12 (stereo unspecified) + CNC(C)C(=O)NC1CN(S(=O)(=O)c2cccc(S(=O)(=O)N3CCC4CCC(C(=O)NC(c5ccccc5)c5ccccc5)N4C(=O)C(NC(=O)C(C)NC)C3)c2)CCC2CCC(C(=O)NC(c3ccccc3)c3ccccc3)N2C1=O
- IC50 (second compound 0.00316 µM): 2 µM
- IC50 (second compound 0.01 µM): 2.62 µM
- IC50 (second compound 0.0316 µM): 1.66 µM
- IC50 (second compound 0.1 µM): 1.91 µM
- IC50 (second compound 0.316 µM): 1.03 µM
- IC50 (second compound 1 µM): 0.269 µM
- viability, T/C [1]: 103%
- viability, T/C [2]: 76.9%
- viability, T/C [3]: 66.3%
- viability, T/C [4]: 58.9%
- viability, T/C [5]: 46.9%
- viability, T/C [6]: 38.9%
- viability, T/C [7]: 104%
- viability, T/C [8]: 82%
- viability, T/C [9]: 66.1%
- viability, T/C [10]: 62.9%
- viability, T/C [11]: 48.5%
- viability, T/C [12]: 39.8%
- viability, T/C [13]: 95%
- viability, T/C [14]: 94.3%
- viability, T/C [15]: 66.8%
- viability, T/C [16]: 54.9%
- viability, T/C [17]: 50%
- viability, T/C [18]: 37.5%
- viability, T/C [19]: 91.8%
- viability, T/C [20]: 73.8%
- viability, T/C [21]: 65.8%
- viability, T/C [22]: 60.1%
- viability, T/C [23]: 45.3%
- viability, T/C [24]: 34.3%
- viability, T/C [25]: 84.7%
- viability, T/C [26]: 78.5%
- viability, T/C [27]: 59.4%
- viability, T/C [28]: 51.4%
- viability, T/C [29]: 40%
- viability, T/C [30]: 30.1%
- viability, T/C [31]: 66%
- viability, T/C [32]: 55.2%
- viability, T/C [33]: 50.7%
- viability, T/C [34]: 40%
- viability, T/C [35]: 29%
- viability, T/C [36]: 21.6%

Compound: C=C(F)C(=O)N1CCN(c2nc(OCC3CCCN3C)nc3c2CCN(c2cccc4cccc(Cl)c24)C3)CC1CC#N (stereo unspecified) + CNC(C)C(=O)NC1CN(S(=O)(=O)c2cccc(S(=O)(=O)N3CCC4CCC(C(=O)NC(c5ccccc5)c5ccccc5)N4C(=O)C(NC(=O)C(C)NC)C3)c2)CCC2CCC(C(=O)NC(c3ccccc3)c3ccccc3)N2C1=O
- IC50 (second compound 0.00316 µM): 5.51 µM
- IC50 (second compound 0.01 µM): 4.85 µM
- IC50 (second compound 0.0316 µM): 4.25 µM
- IC50 (second compound 0.1 µM): 4.11 µM
- IC50 (second compound 0.316 µM): 3.52 µM
- IC50 (second compound 1 µM): 2.56 µM
- viability, T/C [1]: 101%
- viability, T/C [2]: 104%
- viability, T/C [3]: 103%
- viability, T/C [4]: 85.6%
- viability, T/C [5]: 94.4%
- viability, T/C [6]: 2.3%
- viability, T/C [7]: 98.8%
- viability, T/C [8]: 100%
- viability, T/C [9]: 94.9%
- viability, T/C [10]: 101%
- viability, T/C [11]: 77.3%
- viability, T/C [12]: 3.86%
- viability, T/C [13]: 102%
- viability, T/C [14]: 102%
- viability, T/C [15]: 104%
- viability, T/C [16]: 104%
- viability, T/C [17]: 67.2%
- viability, T/C [18]: 0.24%
- viability, T/C [19]: 96.1%
- viability, T/C [20]: 101%
- viability, T/C [21]: 92.2%
- viability, T/C [22]: 87.2%
- viability, T/C [23]: 64.3%
- viability, T/C [24]: 3.14%
- viability, T/C [25]: 95.4%
- viability, T/C [26]: 90.3%
- viability, T/C [27]: 83.4%
- viability, T/C [28]: 79%
- viability, T/C [29]: 56.3%
- viability, T/C [30]: 0.25%
- viability, T/C [31]: 84.5%
- viability, T/C [32]: 75.3%
- viability, T/C [33]: 82.5%
- viability, T/C [34]: 66.4%
- viability, T/C [35]: 46.3%
- viability, T/C [36]: 0.27%

Compound: CCN1C(C(=O)NC23CCC(C(=O)O)(CC2)CC3)C(c2cccc(Cl)c2F)C2(C(=O)Nc3cc(Cl)ccc32)C12CCCCC2 (stereo unspecified) + CNC(C)C(=O)NC1CN(S(=O)(=O)c2cccc(S(=O)(=O)N3CCC4CCC(C(=O)NC(c5ccccc5)c5ccccc5)N4C(=O)C(NC(=O)C(C)NC)C3)c2)CCC2CCC(C(=O)NC(c3ccccc3)c3ccccc3)N2C1=O
- IC50 (second compound 0.00316 µM): > 3 µM
- IC50 (second compound 0.01 µM): > 3 µM
- IC50 (second compound 0.0316 µM): > 3 µM
- IC50 (second compound 0.1 µM): > 3 µM
- IC50 (second compound 0.316 µM): > 3 µM
- IC50 (second compound 1 µM): > 3 µM
- viability, T/C (second compound 0.00316 µM, first compound 0.00949 µM): 116%
- viability, T/C (second compound 0.00316 µM, first compound 0.03 µM): 92.9%
- viability, T/C (second compound 0.00316 µM, first compound 0.0949 µM): 107%
- viability, T/C (second compound 0.00316 µM, first compound 0.3 µM): 106%
- viability, T/C (second compound 0.00316 µM, first compound 0.949 µM): 95.6%
- viability, T/C (second compound 0.00316 µM, first compound 3 µM): 107%
- viability, T/C (second compound 0.01 µM, first compound 0.00949 µM): 109%
- viability, T/C (second compound 0.01 µM, first compound 0.03 µM): 103%
- viability, T/C (second compound 0.01 µM, first compound 0.0949 µM): 100%
- viability, T/C (second compound 0.01 µM, first compound 0.3 µM): 99.8%
- viability, T/C (second compound 0.01 µM, first compound 0.949 µM): 113%
- viability, T/C (second compound 0.01 µM, first compound 3 µM): 96.5%
- viability, T/C (second compound 0.0316 µM, first compound 0.00949 µM): 103%
- viability, T/C (second compound 0.0316 µM, first compound 0.03 µM): 106%
- viability, T/C (second compound 0.0316 µM, first compound 0.0949 µM): 103%
- viability, T/C (second compound 0.0316 µM, first compound 0.3 µM): 102%
- viability, T/C (second compound 0.0316 µM, first compound 0.949 µM): 115%
- viability, T/C (second compound 0.0316 µM, first compound 3 µM): 110%
- viability, T/C (second compound 0.1 µM, first compound 0.00949 µM): 95.9%
- viability, T/C (second compound 0.1 µM, first compound 0.03 µM): 101%
- viability, T/C (second compound 0.1 µM, first compound 0.0949 µM): 117%
- viability, T/C (second compound 0.1 µM, first compound 0.3 µM): 99.1%
- viability, T/C (second compound 0.1 µM, first compound 0.949 µM): 105%
- viability, T/C (second compound 0.1 µM, first compound 3 µM): 107%
- viability, T/C (second compound 0.316 µM, first compound 0.00949 µM): 105%
- viability, T/C (second compound 0.316 µM, first compound 0.03 µM): 94.2%
- viability, T/C (second compound 0.316 µM, first compound 0.0949 µM): 91.3%
- viability, T/C (second compound 0.316 µM, first compound 0.3 µM): 85.3%
- viability, T/C (second compound 0.316 µM, first compound 0.949 µM): 96.5%
- viability, T/C (second compound 0.316 µM, first compound 3 µM): 87.1%
- viability, T/C (second compound 1 µM, first compound 0.00949 µM): 78.6%
- viability, T/C (second compound 1 µM, first compound 0.03 µM): 87.7%
- viability, T/C (second compound 1 µM, first compound 0.0949 µM): 76.8%
- viability, T/C (second compound 1 µM, first compound 0.3 µM): 75.8%
- viability, T/C (second compound 1 µM, first compound 0.949 µM): 88.8%
- viability, T/C (second compound 1 µM, first compound 3 µM): 79.5%
